Legend:
[1] = target: T1, beta-catenin-B-cell lymphoma 9 protein complex (Homo sapiens, UniProt P35222); assay: Inhibition of full length C-terminal 6-His-tagged beta-catenin (1 to 781 residues) (unknown origin) expressed in Escherichia coli BL21 (DE3)-N-terminal biotinylated human BCL9 (350 to 375 residues) protein-protein interaction incubated for 1 hr by Alphascreen assay
T1 sequence (P35222 whole entry): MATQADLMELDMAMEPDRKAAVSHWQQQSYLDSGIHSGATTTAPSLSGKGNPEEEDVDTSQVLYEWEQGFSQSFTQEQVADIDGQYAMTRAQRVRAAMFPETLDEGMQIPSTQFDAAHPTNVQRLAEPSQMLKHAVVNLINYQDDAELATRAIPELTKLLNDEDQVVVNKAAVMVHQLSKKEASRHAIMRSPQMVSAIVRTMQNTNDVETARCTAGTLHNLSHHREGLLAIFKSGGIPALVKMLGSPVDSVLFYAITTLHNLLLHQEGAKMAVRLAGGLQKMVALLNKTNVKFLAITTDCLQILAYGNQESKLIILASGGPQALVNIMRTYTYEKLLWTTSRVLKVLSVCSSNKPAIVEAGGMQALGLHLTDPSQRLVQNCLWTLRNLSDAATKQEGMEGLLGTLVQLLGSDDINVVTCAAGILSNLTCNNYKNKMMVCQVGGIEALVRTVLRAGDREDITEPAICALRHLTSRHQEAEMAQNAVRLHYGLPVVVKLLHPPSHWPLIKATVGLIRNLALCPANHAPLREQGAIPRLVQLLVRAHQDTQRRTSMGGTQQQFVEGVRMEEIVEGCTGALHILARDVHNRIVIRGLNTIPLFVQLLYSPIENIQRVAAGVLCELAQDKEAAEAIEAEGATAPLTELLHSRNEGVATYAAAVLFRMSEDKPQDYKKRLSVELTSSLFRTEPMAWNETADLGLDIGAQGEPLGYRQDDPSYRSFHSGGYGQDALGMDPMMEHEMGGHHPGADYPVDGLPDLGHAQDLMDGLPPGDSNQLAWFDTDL
T1 sequence (O00512 whole entry): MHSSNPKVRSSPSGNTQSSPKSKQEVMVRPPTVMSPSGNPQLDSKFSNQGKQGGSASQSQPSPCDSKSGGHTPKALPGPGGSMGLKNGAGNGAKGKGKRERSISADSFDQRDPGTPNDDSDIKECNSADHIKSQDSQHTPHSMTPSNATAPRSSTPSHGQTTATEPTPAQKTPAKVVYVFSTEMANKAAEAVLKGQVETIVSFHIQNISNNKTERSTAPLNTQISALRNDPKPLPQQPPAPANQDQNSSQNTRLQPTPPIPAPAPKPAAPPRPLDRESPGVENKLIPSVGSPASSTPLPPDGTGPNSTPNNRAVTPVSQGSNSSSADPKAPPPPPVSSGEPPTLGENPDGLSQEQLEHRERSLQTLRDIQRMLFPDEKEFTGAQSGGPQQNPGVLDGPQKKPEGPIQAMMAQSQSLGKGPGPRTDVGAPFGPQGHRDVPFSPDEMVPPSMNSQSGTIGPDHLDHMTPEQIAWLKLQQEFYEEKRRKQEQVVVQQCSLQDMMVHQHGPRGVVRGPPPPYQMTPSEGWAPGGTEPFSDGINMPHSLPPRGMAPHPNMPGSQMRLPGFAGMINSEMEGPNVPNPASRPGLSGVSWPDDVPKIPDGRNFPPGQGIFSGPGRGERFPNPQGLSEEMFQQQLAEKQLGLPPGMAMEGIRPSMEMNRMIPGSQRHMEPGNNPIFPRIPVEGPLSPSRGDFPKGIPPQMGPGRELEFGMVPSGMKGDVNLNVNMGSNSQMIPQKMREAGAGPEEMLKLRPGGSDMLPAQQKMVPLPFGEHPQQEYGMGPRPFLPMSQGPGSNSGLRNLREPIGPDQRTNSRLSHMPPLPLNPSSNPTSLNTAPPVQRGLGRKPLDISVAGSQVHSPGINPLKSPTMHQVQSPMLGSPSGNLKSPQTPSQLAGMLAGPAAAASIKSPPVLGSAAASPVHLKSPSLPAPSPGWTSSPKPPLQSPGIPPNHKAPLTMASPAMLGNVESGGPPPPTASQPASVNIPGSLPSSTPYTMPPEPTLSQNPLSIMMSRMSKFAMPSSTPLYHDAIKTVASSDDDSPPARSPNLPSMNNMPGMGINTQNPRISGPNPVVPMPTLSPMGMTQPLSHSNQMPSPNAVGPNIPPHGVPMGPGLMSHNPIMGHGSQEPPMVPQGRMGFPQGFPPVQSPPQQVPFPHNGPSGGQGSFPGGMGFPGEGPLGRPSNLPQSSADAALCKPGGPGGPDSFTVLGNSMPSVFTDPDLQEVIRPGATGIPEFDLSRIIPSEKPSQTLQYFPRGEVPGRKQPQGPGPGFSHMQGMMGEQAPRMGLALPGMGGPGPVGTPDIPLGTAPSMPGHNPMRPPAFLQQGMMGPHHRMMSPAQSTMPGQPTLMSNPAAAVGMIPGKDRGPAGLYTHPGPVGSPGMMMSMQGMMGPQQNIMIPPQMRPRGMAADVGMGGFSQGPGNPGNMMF

SW480 [2] = assay: Antiproliferative activity against human SW480 cells incubated for 72 hrs by MTS assay; assay type: functional, cell-based; settings: SW480, 72 h
MDA-MB-231 = assay: Antiproliferative activity against human MDA-MB-231 cells incubated for 72 hrs by MTS assay; assay type: functional, cell-based; settings: MDA-MB-231, 72 h
MDA-MB-468 = assay: Antiproliferative activity against human MDA-MB-468 cells incubated for 72 hrs by MTS assay; assay type: functional, cell-based; settings: MDA-MB-468, 72 h
MCF-10A = assay: Antiproliferative activity against human MCF10A cells incubated for 72 hrs by MTS assay; assay type: functional, cell-based
HCT-116 = assay: Antiproliferative activity against human HCT116 cells incubated for 72 hrs by MTS assay; assay type: functional, cell-based; settings: HCT-116, 72 h
SW480 [3] = assay: (§1) Inhibition of Wnt/beta-catenin transactivation signalling in human SW480 cells harboring wild type tcf4 binding sites incubated for 24 hrs by TOPFlash luciferase assay; assay type: cell-based
[4] = as §1; assay type: cell-based
SW480 [5] = assay: Inhibition of Wnt/beta-catenin transactivation signalling in human SW480 cells harboring mutant tcf4 binding sites assessed as relative activity at 12.5 uM incubated for 24 hrs by FOPFlash luciferase assay relative to control; assay type: cell-based; set-up: scale not given: the % may be the effect or the level left
SW480 [6] = assay: Inhibition of Wnt/beta-catenin transactivation signalling in human SW480 cells harboring mutant tcf4 binding sites assessed as relative activity at 3.125 uM incubated for 24 hrs by FOPFlash luciferase assay relative to control; assay type: cell-based; set-up: scale not given: the % may be the effect or the level left
SW480 [7] = assay: Inhibition of Wnt/beta-catenin transactivation signalling in human SW480 cells harboring mutant tcf4 binding sites assessed as relative activity at 6.25 uM incubated for 24 hrs by FOPFlash luciferase assay relative to control; assay type: cell-based; set-up: scale not given: the % may be the effect or the level left

SMILES | IC50 [1] [µM] | Ki [1] [µM] | other results
CC(C)(Oc1cccc(N2CCCC(C(=O)N(Cc3ccc(-c4cccs4)cc3)C3CC3)C2)c1)C(=O)NS(=O)(=O)c1ccccc1 (stereo unspecified) | 7.7 | 6.4 | –
CC(C)(C)OC(=O)C(C)(C)Oc1cccc(N2CCCC(C(=O)N(Cc3ccc(-c4cccs4)cc3)C3CC3)C2)c1 (stereo unspecified) | > 100 | > 90 | IC50 (SW480 [2]): > 200 µM; IC50 (MDA-MB-231): > 200 µM; IC50 (MDA-MB-468): > 200 µM; IC50 (MCF-10A): > 200 µM; IC50 (HCT-116): > 200 µM
CC(C)(Oc1cccc(N2CCCC(C(=O)N(Cc3ccc(-c4cccs4)cc3)C3CC3)C2)c1)C(=O)NS(=O)(=O)c1ccc(C#N)cc1 (racemic) | 4.8 | 3.9 | –
CC(C)c1ccc(CN(C(=O)C2CCCN(c3cccc(OC(C)(C)C(=O)O)c3)C2)C(C)C)cc1 (stereo unspecified) | 52 | 46 | –
CC(C)(Oc1cccc(N2CCCC(C(=O)N(Cc3ccc(-c4cccs4)cc3)C3CC3)C2)c1)C(=O)NS(=O)(=O)c1cccc(C#N)c1 (stereo unspecified) | 6.3 | 5.1 | –
COc1cccc(S(=O)(=O)NC(=O)C(C)(C)Oc2cccc(N3CCCC(C(=O)N(Cc4ccc(-c5cccs5)cc4)C4CC4)C3)c2)c1 (stereo unspecified) | 5.1 | 4.1 | –
CC(C)(Oc1cccc(N2CCC[C@@H](C(=O)N(Cc3ccc(-c4cccs4)cc3)C3CC3)C2)c1)C(=O)NS(=O)(=O)c1ccc(C#N)cc1 | 4.8 | 3.9 | –
COc1cccc(S(=O)(=O)NC(=O)C(C)(C)Oc2cccc(N3CCC[C@@H](C(=O)N(Cc4ccc(-c5cccs5)cc4)C4CC4)C3)c2)c1 | 5.7 | 4.6 | –
COC(=O)C(C)(C)Oc1cccc(N2CCCC(C(=O)N(Cc3ccc(-c4cccs4)cc3)C3CC3)C2)c1 (stereo unspecified) | > 100 | > 90 | –
CC(C)S(=O)(=O)NC(=O)C(C)(C)Oc1cccc(N2CCCC(C(=O)N(Cc3ccc(-c4cccs4)cc3)C3CC3)C2)c1 (stereo unspecified) | 13 | 11 | –
Cn1nccc1-c1ccc(CN(C(=O)C2CCCN(c3cccc(OC(C)(C)C(=O)O)c3)C2)C2CC2)cc1 (stereo unspecified) | > 100 | > 90 | –
CC(C)c1ccc(CN(C)C(=O)C2CCCN(c3cccc(OC(C)(C)C(=O)O)c3)C2)cc1 (stereo unspecified) | 71 | 59 | –
CC(C)(Oc1cccc(N2CCCC(C(=O)N(Cc3ccc(-c4ccn[nH]4)cc3)C3CC3)C2)c1)C(=O)O (stereo unspecified) | 72 | 61 | –
CC(C)c1ccc(CN(C(=O)C2CCCN(c3cccc(OC(C)(C)C(=O)O)c3)C2)C2CC2)cc1 (stereo unspecified) | 40 | 36 | –
CC(C)(Oc1cccc(N2CCCC(C(=O)N(Cc3ccc(-c4cccs4)cc3)C3CC3)C2)c1)C(=O)NS(=O)(=O)c1cccc(O)c1 (stereo unspecified) | 7.1 | 5.8 | –
CC(C)(Oc1cccc(N2CCCC(C(=O)N(Cc3ccc(-c4ccco4)cc3)C3CC3)C2)c1)C(=O)O (stereo unspecified) | 50 | 42 | –
CC(C)c1ccc(CCNC(=O)C2CCCN(c3cccc(OC(C)(C)C(=O)O)c3)C2)cc1 (stereo unspecified) | 92 | 82 | –
CCN(Cc1ccc(C(C)C)cc1)C(=O)C1CCCN(c2cccc(OC(C)(C)C(=O)O)c2)C1 (stereo unspecified) | 59 | 50 | –
COc1cccc(S(=O)(=O)NC(=O)C(C)(C)Oc2cccc(N3CCC[C@H](C(=O)N(Cc4ccc(-c5cccs5)cc4)C4CC4)C3)c2)c1 | 2.9 | 2.3 | Activity (SW480 [3]): Dose-Dependent Effect; IC50 [4]: 7.8 µM; Activity (SW480 [5]): 54%; Activity (SW480 [6]): 98%; IC50 (SW480 [2]): 28.2 µM; IC50 (MDA-MB-231): 19.8 µM; Activity (SW480 [7]): 81%; IC50 (MDA-MB-468): 15.4 µM; IC50 (MCF-10A): 30.4 µM; IC50 (HCT-116): 29.9 µM
CC(C)c1ccc(CNC(=O)C2CCCN(c3cccc(OC(C)(C)C(=O)O)c3)C2)cc1 (stereo unspecified) | 83 | 71 | –
Cn1cc(-c2ccc(CN(C(=O)C3CCCN(c4cccc(OC(C)(C)C(=O)O)c4)C3)C3CC3)cc2)cn1 (stereo unspecified) | > 100 | > 90 | –
CC(C)(Oc1cccc(N2CCCC(C(=O)N(Cc3ccc(-c4cccs4)cc3)C3CC3)C2)c1)C(=O)NS(C)(=O)=O (stereo unspecified) | 24 | 21 | –
CC(C)(Oc1cccc(N2CCCC(C(=O)N(Cc3ccc(-c4cn[nH]c4)cc3)C3CC3)C2)c1)C(=O)O (stereo unspecified) | > 100 | > 90 | –
CC(C)(Oc1cccc(N2CCCC(C(=O)N(Cc3ccc(-c4cccs4)cc3)C3CC3)C2)c1)C(=O)O (stereo unspecified) | 15 | 13 | IC50 (SW480 [2]): 137 µM; IC50 (MDA-MB-231): 103 µM; IC50 (MDA-MB-468): 95.9 µM; IC50 (MCF-10A): 98.5 µM; IC50 (HCT-116): 112 µM
CC(C)(Oc1cccc(N2CCCC(C(=O)N(Cc3ccc(-c4cccs4)cc3)C3CC3)C2)c1)C(=O)NS(=O)(=O)C1CC1 (stereo unspecified) | 23 | 19 | –
CC(C)(Oc1cccc(N2CCCC(C(=O)N(Cc3ccc(-c4ccsc4)cc3)C3CC3)C2)c1)C(=O)O (stereo unspecified) | 35 | 30 | –
COc1ccc(S(=O)(=O)NC(=O)C(C)(C)Oc2cccc(N3CCCC(C(=O)N(Cc4ccc(-c5cccs5)cc4)C4CC4)C3)c2)cc1 (stereo unspecified) | 6.1 | 4.9 | –
CC(C)(Oc1cccc(N2CCCC(C(=O)N(Cc3ccc(-c4ccoc4)cc3)C3CC3)C2)c1)C(=O)O (stereo unspecified) | > 100 | > 90 | –
